We go through 30 molecules from patent US9951056B2, “Substituted nicotinamide inhibitors of BTK and their preparation and use in the treatment of cancer, inflammation and autoimmune disease” (BEIJING INNOCARE PHARMA TECH CO., LTD., priority 2013, dated 2018).

The assay addresses BTK (Homo sapiens (Human), UniProt Q06187). Kind of assay: ADP-Glo kinase biochemical assay, IC50 determination of BTK inhibitors. As to conditions: ADP-Glo, ATP 50 uM; values given as bins. On the procedure: Biological Properties: IC50 Determination of BTK Inhibitors in ADP-Glo Kinase Biochemical Assay
Those skilled in the art will appreciate that a variety of assay formats may be used to determine the activity of the compounds described herein.
ADP-Glo™ Kinase Assay (Cat. V9102, 10000 Tests), Components: • 1×50 ml ADP-Glo™ Reagent, • 1×100 ml Kinase Detection Buffer, • 1× Kinase Detection Substrate (Lyophilized), • 1×5 ml Ultra Pure ATP, 10 mM • 1×5 ml ADP, 10 mM
• Enzyme concentration: 8 ng/5 ul. • ATP concentration: 50 uM • Substrate (peptide) concentration: 0.2 mg/ml. • Reaction buffer composition: 40 mM Tris-HCl pH7.5, 10 mM MgCl2, 2 mM MnCl2, 0.1 mg/mL BSA, 0.05 mM DTT. • Test compound concentration: DMSO≤0.5%. Methods: Compound Dosage Gradient Solution Preparation: […]
1× and 2× assay buffer were made at first. BTK kinase was diluted with 1× assay buffer but substrate was diluted with 2× assay buffer. 1 ul of diluted compound was transferred into 384-well assay plate, and then 2.0 ul of enzyme solution was added, and spun at 2000 rpm for 1 min. This mixture was incubated at 24° C. for 30 mins. 2 ul of peptide substrate/ATP mixture was added into the assay plate to start the reaction. The mixture was mixed thoroughly and then the 384-well plate was spun and incubated at 24° C. for 60 mins. 5.0 ul of ADP-Glo Reagent was added to stop the kinase activity and deplete the ATP unconsumed, and the plate was mixed thoroughly and incubated at 24° C. for 40 min. Then, 10.0 ul of Kinase Detection reagent was added, and the plate was centrifuged and then kept at 24° C. for 30 min. The luminescence signal was read on Envision.
IC50 values of compounds were calculated from a 4-parameter fit using Equation (2): Y=Bottom+(TOP-Bottom)/(1+((C/X)^hillslope)) Equation (2)
In Equation 2, Y represents % inhibition, X is the log value of the test compound concentration. IC50 was the concentration of compound where half of maximal inhibition was achieved.
All data was analyzed with IDBS XLfit5 software (ID Business Solutions Ltd., UK).

Where only a bound is given, the exact number is not on record here.

Sequence of BTK (Q06187 whole entry): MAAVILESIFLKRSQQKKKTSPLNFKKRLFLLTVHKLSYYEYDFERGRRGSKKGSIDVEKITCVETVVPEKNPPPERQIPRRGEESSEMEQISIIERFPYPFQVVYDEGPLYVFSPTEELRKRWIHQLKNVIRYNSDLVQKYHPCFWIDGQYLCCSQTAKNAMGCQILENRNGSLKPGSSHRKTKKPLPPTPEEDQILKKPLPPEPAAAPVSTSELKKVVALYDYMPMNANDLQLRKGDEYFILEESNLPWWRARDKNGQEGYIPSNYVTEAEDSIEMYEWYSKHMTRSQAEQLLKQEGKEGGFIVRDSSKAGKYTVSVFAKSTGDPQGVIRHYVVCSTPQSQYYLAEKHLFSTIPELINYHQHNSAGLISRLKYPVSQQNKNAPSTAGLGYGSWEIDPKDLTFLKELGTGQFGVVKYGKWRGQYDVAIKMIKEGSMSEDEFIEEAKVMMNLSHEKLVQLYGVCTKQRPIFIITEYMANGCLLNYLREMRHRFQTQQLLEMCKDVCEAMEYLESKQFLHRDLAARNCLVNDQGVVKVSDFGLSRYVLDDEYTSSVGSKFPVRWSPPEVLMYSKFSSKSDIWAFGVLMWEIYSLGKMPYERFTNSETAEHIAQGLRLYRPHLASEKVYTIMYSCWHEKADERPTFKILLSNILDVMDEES

Broadly, the IC50 is the midpoint of a concentration-inhibition curve. For `NC(=O)c1cn(C2CNC2)nc1-c1ccc(Oc2ccccc2)cc1` [Example 14, 1-(azetidin-3-yl)-3-(4-phenoxyphenyl)-1H-pyrazole-4-carboxamide], the IC50 was no less than 1 µM.
For `NC(=O)c1cn(-c2cccc(N)c2)nc1-c1ccc(Oc2ccccc2)cc1` [Example 17, 1-(3-aminophenyl)-3-(4-phenoxyphenyl)-1H-pyrazole-4-carboxamide], the IC50 was less than 0.5 µM.
`C=CC(=O)N1CCC(c2cc(C(N)=O)nn2-c2ccc(Oc3ccccc3)cc2)CC1` [Example 56, 5-(1-acryloylpiperidin-4-yl)-1-(4-phenoxyphenyl)-1H-pyrazole-3-carboxamide] displayed an IC50 of no less than 1 µM.
For `C=CC(=O)N1CCC(c2ccc(C(N)=O)c(-c3ccc(Oc4ccccc4)cc3)c2)CC1` [Example 55, 5-(1-acryloylpiperidin-4-yl)-4′-phenoxybiphenyl-2-carboxamide] the value was less than 0.5 µM; for `C=CC(=O)N1CCN(c2nc(-c3ccc(Oc4ccccc4)cc3)c(C(=O)NC)s2)CC1` [Example 47, 2-(4-acryloylpiperazin-1-yl)-N-methyl-4-(4-phenoxyphenyl)thiazole-5-carboxamide], less than 0.5 µM.
Turning to `C=CC(=O)N1CCC(c2ncc(C(N)=O)c(-c3ccc(Oc4ccccc4)cc3)n2)CC1` [Example 21, 2-(1-acryloylpiperidin-4-yl)-4-(4-phenoxyphenyl)pyrimidine-5-carboxamide], the 50% inhibitory concentration (IC50) was less than 0.5 µM.
For `C=CC(=O)N1CCC(c2ccc(C(N)=O)c(-c3ccc(C(=O)Nc4ccccc4)cc3)n2)CC1` [Example 61, 6-(1-acryloylpiperidin-4-yl)-2-(4-(phenylcarbamoyl)phenyl)nicotinamide] the value was less than 0.5 µM; for `C=CC(=O)N1CCCC(c2nc(-c3ccc(Oc4ccccc4)cc3)c(C(N)=O)o2)C1` (stereo not drawn) [Example 42, 2-(1-acryloylpiperidin-3-yl)-4-(4-phenoxyphenyl)oxazole-5-carboxamide], less than 0.5 µM.
Then `C=CC(=O)N1CCC(c2ncc(C(N)=O)c(-c3ccc(Oc4ccccc4)cc3)n2)C1` (stereo not drawn) [Example 22, 2-(1-acryloylpyrrolidin-3-yl)-4-(4-phenoxyphenyl)pyrimidine-5-carboxamide], with less than 0.5 µM; and `C=CC(=O)N1CC[C@H](n2cc(C(N)=O)c(-c3ccc(Oc4ccccc4)cc3)n2)C1` [Example 19, (S)-1-(1-acryloylpyrrolidin-3-yl)-3-(4-phenoxyphenyl)-1H-pyrazole-4-carboxamide], with less than 0.5 µM.
As for `C=CC(=O)N1CCN(c2ccc(C(N)=O)c(-c3ccc(Oc4ccccc4)nc3)n2)CC1` [Example 31, 6-(4-acryloylpiperazin-1-yl)-6′-phenoxy-2,3′-bipyridine-3-carboxamide], the IC50 is 0.5 to 1 µM.
Regarding `C=CC(=O)Nc1cccc(-c2ccc(C(N)=O)c(-c3ccc(Oc4ccccc4)cc3)n2)c1` [Example 1, 6-(3-acrylamidophenyl)-2-(4-phenoxyphenyl)nicotinamide], the IC50 was less than 0.5 µM.
As for `N#CCC(=O)N1CC(n2cc(C(N)=O)c(-c3ccc(Oc4ccccc4)cc3)n2)C1` [Example 50, 1-(1-(2-cyanoacetyl)azetidin-3-yl)-3-(4-phenoxyphenyl)-1H-pyrazole-4-carboxamide], the IC50 was no less than 1 µM.
For `C=CC(=O)N1CCC(n2cc(C(N)=O)c(-c3ccc(Oc4ccccc4)cc3)n2)CC1` [Example 12, 1-(1-acryloylpiperidin-4-yl)-3-(4-phenoxyphenyl)-1H-pyrazole-4-carboxamide] the value was less than 0.5 µM; for `C=CC(=O)N1CC[C@@H](n2cc(C(N)=O)c(-c3ccc(Oc4ccccc4)cc3)n2)C1` [Example 20, (R)-1-(1-acryloylpyrrolidin-3-yl)-3-(4-phenoxyphenyl)-1H-pyrazole-4-carboxamide], less than 0.5 µM; for `C=CC(=O)N1CCN(c2ccc(C(=O)O)c(-c3ccc(Oc4ccccc4)cc3)n2)CC1` [Example 26, 6-(4-acryloylpiperazin-1-yl)-2-(4-phenoxyphenyl)pyridine-3-carboxylic acid], less than 0.5 µM.
For `C=CC(=O)NC1CCN(c2ccc(C(N)=O)c(-c3ccc(Oc4ccccc4)cc3)n2)CC1` [Example 9, 6-(4-acrylamidopiperidin-1-yl)-2-(4-phenoxyphenyl)nicotinamide] the value was 0.5 to 1 µM.
Then `C=CC(=O)N1CCN(c2ccc(C(N)=O)c(-c3ccc(Oc4cccc(F)c4)cc3)n2)CC1` [Example 35, 6-(4-acryloylpiperazin-1-yl)-2-(4-(3-fluorophenoxy)phenyl)nicotinamide], with less than 0.5 µM; and `NC(=O)c1ccc(C2CCNCC2)nc1-c1ccc(Oc2ccccc2)cc1` [Example 2, 2-(4-phenoxyphenyl)-6-(piperidin-4-yl)nicotinamide], with no less than 1 µM; and `C=CC(=O)N1CCC(c2nc(C(N)=O)c(-c3ccc(Oc4ccccc4)cc3)s2)CC1` [Example 49, 2-(1-acryloylpiperidin-4-yl)-5-(4-phenoxyphenyl)thiazole-4-carboxamide], with less than 0.5 µM.
Regarding `C=CC(=O)N1CCC(c2nc(C(N)=O)c(-c3ccc(Oc4ccccc4)cc3)s2)C1` (stereo not drawn) [Example 44, 2-(1-acryloylpyrrolidin-3-yl)-5-(4-phenoxyphenyl)thiazole-4-carboxamide], the IC50 was less than 0.5 µM.
For `C=CC(=O)N1CCCC(n2cc(C(N)=O)c(-c3ccc(Oc4ccccc4)cc3)n2)C1` (stereo not drawn) [Example 11, 1-(1-acryloylpiperidin-3-yl)-3-(4-phenoxyphenyl)-1H-pyrazole-4-carboxamide] the value was less than 0.5 µM.
`C=CC(=O)N1CC(n2cc(C(N)=O)c(-c3ccc(Oc4ccccc4)cc3)n2)C1` [Example 15, 1-(1-acryloylazetidin-3-yl)-3-(4-phenoxyphenyl)-1H-pyrazole-4-carboxamide]: the IC50 was less than 0.5 µM.
Molecule `N#C/C(=C\C1CC1)C(=O)N1CC(n2cc(C(N)=O)c(-c3ccc(Oc4ccccc4)cc3)n2)C1` [Example 53, (E)-1-(1-(2-cyano-3-cyclopropylacryloyl)azetidin-3-yl)-3-(4-phenoxyphenyl)-1H-pyrazole-4-carboxamide] gave an IC50 of no less than 1 µM.
For `C=CC(=O)N1CCC(c2nc(-c3ccc(Oc4ccccc4)cc3)c(C(N)=O)o2)CC1` [Example 46, 2-(1-acryloylpiperidin-4-yl)-4-(4-phenoxyphenyl)oxazole-5-carboxamide] the value was less than 0.5 µM; for `C=CC(=O)N1CCC(c2nc(-c3ccc(Oc4ccccc4)cc3)c(C(N)=O)s2)C1` (stereo not drawn) [Example 41, 2-(1-acryloylpyrrolidin-3-yl)-4-(4-phenoxyphenyl)thiazole-5-carboxamide], less than 0.5 µM.
Then `C=CC(=O)N1CCN(c2ccc(C(N)=O)c(-c3ccc(F)c(OC)c3)n2)CC1` [Example 30, 6-(4-acryloylpiperazin-1-yl)-2-(4-fluoro-3-methoxyphenyl)nicotinamide], with no less than 1 µM; and `C=CC(=O)N1CCCC(c2ccc(C(N)=O)c(-c3ccc(Oc4ccccc4)cc3)n2)C1` (stereo not drawn) [Example 8, 6-(1-acryloylpiperidin-3-yl)-2-(4-phenoxyphenyl)nicotnamide], with less than 0.5 µM; and `NC(=O)c1ccc(N2CCNCC2)nc1-c1ccc(Oc2ccccc2)cc1` [Example 4, 2-(4-phenoxyphenyl)-6-(piperazin-1-yl)nicotinamide], with no less than 1 µM.
As for `C=CC(=O)Nc1ccc(-n2cc(C(N)=O)c(-c3ccc(Oc4ccccc4)cc3)n2)cc1` [Example 16, 1-(4-acrylamidophenyl)-3-(4-phenoxyphenyl)-1H-pyrazole-4-carboxamide], the IC50 is less than 0.5 µM.
